Measurements published in patent publication US4051237A, “Glycopeptide antibiotics Bu-2231 A and B and process for producing same” (priority 1975, dated 1977).
Where two headings read alike, the source gives them in different places.

Experiments:
C. albicans Nystatin-R = test: MIC by two-fold agar dilution; format: cell-based; details: Ca-2 C. albicans Nystatin-R; sabouraud agar; unit assumed
[1] = test system: C. tropicalis #125 A15051; test: MIC by two-fold agar dilution; format: cell-based; details: Ct-4 C. tropicalis #125 A15051; sabouraud agar; unit assumed
[2] = test system: Walker 256 carcinosarcoma in ascitic form; details: for Average Weight Change: recorded Day 5; for Survivors Day 44: survivors considered cured; for Survivors Day 5: toxicity evaluation;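 for all read-outs here: female SD rats bearing intraperitoneally implanted ascites tumor cells, treated ip once a day for 8 days beginning on Day 1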
E. coli NIHJ [3] = test: MIC by two-fold agar dilution; format: cell-based; details: Mueller-Hinton agar, unit assumed
Lewis Lung carcinoma = details: Exp. #55; for Survivors Day 5: toxicity evaluation
M. canis D-51 = test: MIC by two-fold agar dilution; format: cell-based; details: Mc-1 M. canis D-51; sabouraud agar; unit assumed
C. lunata ATCC 13432 = test: MIC by two-fold agar dilution; format: cell-based; details: Cl-1 C. lunata ATCC 13432; sabouraud agar; unit assumed
S. marcescens A20019 = test: MIC by two-fold agar dilution; format: cell-based; details: Mueller-Hinton agar, unit assumed
T. asteroides = test: MIC by two-fold agar dilution; format: cell-based; details: Ta-1 T. asteroides; sabouraud agar; unit assumed
S. cerevisiae IAM 4009 = test: MIC by two-fold agar dilution; format: cell-based; details: Sc-2 S. cerevisiae IAM 4009; sabouraud agar; unit assumed
S. aureus Smith = test: In vivo activity in experimental mice infection; details: Table 11
Procedure: (§1) The in vivo activity of Bu-2231 complex was evaluated in experimental mice infections against S. aureus Smith and E. coli NIHJ. Bleomycin was tested comparatively as a reference antibiotic.

K. pneumoniae A20328 = test: MIC by two-fold agar dilution; format: cell-based; details: Mueller-Hinton agar, unit assumed
A. niger var Tieghem = test: MIC by two-fold agar dilution; format: cell-based; details: An-1 A. niger var Tieghem; sabouraud agar; unit assumed
S. marcescens A20460 = test: MIC by two-fold agar dilution; format: cell-based; details: Mueller-Hinton agar, unit assumed
E. coli A20732 = test: MIC by two-fold agar dilution; format: cell-based; details: Mueller-Hinton agar, unit assumed
P. mirabilis A9554 = test: MIC by two-fold agar dilution; format: cell-based; details: Mueller-Hinton agar, unit assumed
E. coli NIHJ [4] = test: In vivo activity in experimental mice infection; details: Table 11 second part
Procedure: as §1
The in vivo activty of the individual components of Bu-2231 in each of the copper-free and copper complex forms was also determined in E. coli infection.

P. aeruginosa A 9923 = test: MIC by two-fold agar dilution; format: cell-based; details: Mueller-Hinton agar, unit assumed
Mycobacterium 607, D87 = test: MIC by two-fold agar dilution; format: cell-based; details: Medium #1001, unit assumed
Verticillium sp. = test: MIC by two-fold agar dilution; format: cell-based; details: Vx-1 Verticillium sp.; sabouraud agar; unit assumed
Mycobacterium phlei, D88 = test: MIC by two-fold agar dilution; format: cell-based; details: Medium #1001, unit assumed
[5] = test system: Mycobacterium ranae, ATCC110; test: MIC by two-fold agar dilution; format: cell-based; details: Medium #1001, unit assumed
E. coli A20665 = test: MIC by two-fold agar dilution; format: cell-based; details: Mueller-Hinton agar, unit assumed
S. aureus BX-1633,A9606 = test: MIC by two-fold agar dilution; format: cell-based; details: Mueller-Hinton agar, unit assumed
K. pneumoniae D11 = test: MIC by two-fold agar dilution; format: cell-based; details: Mueller-Hinton agar, unit assumed
[6] = test system: F. moniliforme NRRL A2284; test: MIC by two-fold agar dilution; format: cell-based; details: Fm-1 F. moniliforme NRRL A2284; sabouraud agar; unit assumed
A. fumigatus IAM 2530 = test: MIC by two-fold agar dilution; format: cell-based; details: Af-1 A. fumigatus IAM 2530; sabouraud agar; unit assumed
Sporotrichum sp. = test: MIC by two-fold agar dilution; format: cell-based; details: Sy-1 Sporotrichum sp.; sabouraud agar; unit assumed
S. aureus Smith A9537 = test: MIC by two-fold agar dilution; format: cell-based; details: Mueller-Hinton agar, unit assumed
[7] = Exp. #5439, 160 mcg/kg/day ip once daily for 8 days
[8] = Exp. #5439, 640 mcg/kg/day ip once daily for 8 days
[9] = Exp. #5439, 2560 mcg/kg/day ip once daily for 8 days
[10] = 1 mg/kg/day ip once daily for 9 days
[11] = 2 mg/kg/day ip once daily for 9 days
[12] = 4 mg/kg/day ip once daily for 9 days
[13] = 8 mg/kg/day ip once daily for 9 days

Bleomycin [reference compound]
MIC (C. albicans Nystatin-R): 12.5 µg/mL
MIC [1]: > 100 µg/mL
Effect MST %T/C [2, 7]: 111%
MST Days [2, 7]: 10.0 days
Average Weight Change ([2]; Exp. #5439, 160 mcg/kg/day): +11 g.
Survivors Day 44 ([2]; Exp. #5439, 160 mcg/kg/day): 0/6
Survivors Day 5 ([2]; Exp. #5439, 160 mcg/kg/day): 6/6
Effect MST %T/C [2, 8]: 194%
MST Days [2, 8]: 17.5 days
Survivors Day 44 ([2]; Exp. #5439, 640 mcg/kg/day): 1/6
Survivors Day 5 ([2]; Exp. #5439, 640 mcg/kg/day): 6/6
Effect MST %T/C [2, 9]: > 489%
MST Days [2, 9]: > 44.0 days
Average Weight Change ([2]; Exp. #5439, 2560 mcg/kg/day): +10 g.
Survivors Day 44 ([2]; Exp. #5439, 2560 mcg/kg/day): 4/6
Survivors Day 5 ([2]; Exp. #5439, 2560 mcg/kg/day): 6/6
Effect MST %T/C ([2]; Exp. #5501, 160 mcg/kg/day ip once daily for 8 days): 157%
MST Days ([2]; Exp. #5501, 160 mcg/kg/day ip once daily for 8 days, Bu-2231 A and B as copper-free formate salts): 11.0 days
Survivors Day 5 ([2]; Exp. #5501, 160 mcg/kg/day): 6/6
Effect MST %T/C ([2]; Exp. #5501, 640 mcg/kg/day ip once daily for 8 days): 179%
MST Days ([2]; Exp. #5501, 640 mcg/kg/day ip once daily for 8 days, Bu-2231 A and B as copper-free formate salts): 12.5 days
Survivors Day 5 ([2]; Exp. #5501, 640 mcg/kg/day): 6/6
minimum effective dose (MED) ([2]; Table I, Walker 256 ascitic tumor): 0.64 mg/kg
MIC (E. coli NIHJ [3]): 0.8 µg/mL
Effect MST %T/C (Lewis Lung carcinoma; [10]): 109%
MST Days (Lewis Lung carcinoma; [10]): 24.0 days
Survivors Day 5 (Lewis Lung carcinoma; 1 mg/kg/day): 6/6
Effect MST %T/C (Lewis Lung carcinoma; [11]): 109%
MST Days (Lewis Lung carcinoma; [11]): 24.0 days
Survivors Day 5 (Lewis Lung carcinoma; 2 mg/kg/day): 6/6
Effect MST %T/C (Lewis Lung carcinoma; [12]): 57%
MST Days (Lewis Lung carcinoma; [12]): 12.5 days
Survivors Day 5 (Lewis Lung carcinoma; 4 mg/kg/day): 6/6
Effect MST %T/C (Lewis Lung carcinoma; [13]): 48%
MST Days (Lewis Lung carcinoma; [13]): 10.5 days
Survivors Day 5 (Lewis Lung carcinoma; 8 mg/kg/day): 6/6
MIC (M. canis D-51): > 100 µg/mL
MIC (C. lunata ATCC 13432): 0.1 µg/mL
MIC (S. marcescens A20019): > 100 µg/mL
MIC (T. asteroides): > 100 µg/mL
MIC (S. cerevisiae IAM 4009): 0.4 µg/mL
PD50 (median protective dose) (S. aureus Smith; S. aureus Smith infection, mice, sc): 2.5 mg/kg
In vivo activity vs. S. aureus Smith infection (x/5 mice) (S. aureus Smith; dose (sc) 0.13 mg/kg): 0/5
In vivo activity vs. S. aureus Smith infection (x/5 mice) (S. aureus Smith; dose (sc) 0.5 mg/kg): 1/5
In vivo activity vs. S. aureus Smith infection (x/5 mice) (S. aureus Smith; dose (sc) 2 mg/kg): 2/5
In vivo activity vs. S. aureus Smith infection (x/5 mice) (S. aureus Smith; dose (sc) 8 mg/kg): 4/5
MIC (K. pneumoniae A20328): 25 µg/mL
MIC (A. niger var Tieghem): 0.4 µg/mL
MIC (S. marcescens A20460): > 100 µg/mL
MIC (E. coli A20732): 1.6 µg/mL
MIC (P. mirabilis A9554): 50 µg/mL
PD50 (median protective dose) (E. coli NIHJ [4]; E. coli NIHJ infection, mice, sc): 2.55 mg/kg
In vivo activity, E. coli NIHJ infection (x/5 mice) (E. coli NIHJ [4]; dose (sc) 0.13 mg/kg): 0/5
In vivo activity, E. coli NIHJ infection (x/5 mice) (E. coli NIHJ [4]; dose (sc) 0.5 mg/kg): 1/5
In vivo activity, E. coli NIHJ infection (x/5 mice) (E. coli NIHJ [4]; dose (sc) 2 mg/kg): 1/5
In vivo activity, E. coli NIHJ infection (x/5 mice) (E. coli NIHJ [4]; dose (sc) 8 mg/kg): 5/5
MIC (P. aeruginosa A 9923): > 100 µg/mL
MIC (Mycobacterium 607, D87): 0.8 µg/mL
MIC (Verticillium sp.): 6.3 µg/mL
MIC (Mycobacterium phlei, D88): 0.2 µg/mL
MIC [5]: 0.8 µg/mL
MIC (E. coli A20665): 0.2 µg/mL
MIC (S. aureus BX-1633,A9606): 6.3 µg/mL
MIC (K. pneumoniae D11): 0.2 µg/mL
MIC [6]: > 100 µg/mL
MIC (A. fumigatus IAM 2530): 0.8 µg/mL
MIC (Sporotrichum sp.): > 100 µg/mL
MIC (S. aureus Smith A9537): 3.1 µg/mL

Phleomycin [reference compound]
MIC (C. albicans Nystatin-R): 1.6 µg/mL
MIC [1]: 6.3 µg/mL
MIC (E. coli NIHJ [3]): 0.8 µg/mL
MIC (M. canis D-51): 6.3 µg/mL
MIC (C. lunata ATCC 13432): 0.4 µg/mL
MIC (S. marcescens A20019): 0.8 µg/mL
MIC (T. asteroides): 6.3 µg/mL
MIC (S. cerevisiae IAM 4009): 0.8 µg/mL
MIC (K. pneumoniae A20328): > 100 µg/mL
MIC (A. niger var Tieghem): 0.4 µg/mL
MIC (S. marcescens A20460): 0.8 µg/mL
MIC (E. coli A20732): 1.6 µg/mL
MIC (P. mirabilis A9554): 1.6 µg/mL
MIC (P. aeruginosa A 9923): > 100 µg/mL
MIC (Mycobacterium 607, D87): 0.4 µg/mL
MIC (Verticillium sp.): 6.3 µg/mL
MIC (Mycobacterium phlei, D88): 0.1 µg/mL
MIC [5]: 0.4 µg/mL
MIC (E. coli A20665): 0.4 µg/mL
MIC (S. aureus BX-1633,A9606): 0.4 µg/mL
MIC (K. pneumoniae D11): 0.4 µg/mL
MIC [6]: 12.5 µg/mL
MIC (A. fumigatus IAM 2530): 0.8 µg/mL
MIC (Sporotrichum sp.): 12.5 µg/mL
MIC (S. aureus Smith A9537): 0.1 µg/mL
